Legend:
[1] = Cytotoxicity by survived cell number in 293 cells expressing ∆K280 TauRD‐DsRed; assay type: cell-based; conditions: human; for IC50 at 3 days: 293 cells expressing ∆K280 TauRD‐DsRed for 3 days; for viability at 3 days, 1 µM: % of cells without treatment
Excerpt: In ∆K280 TauRD‐DsRed 293 cells, a proaggregant (ΔK280) Tau repeat domain (TauRD) containing residues 244–372 of the full‐length 4R2N Tau441 was fused in‐frame with DsRed fluorophore. Compared to the wild‐type TauRD, the poorly folded ΔK280 TauRD formed aggregates, which adversely affected the folding of fused DsRed and thus decreased DsRed fluorescence, as also evidenced by increase in thioflavin S fluorescence emission (Chang et al., 2017). Thioflavin S is a reporter dye for studies of Tau toxicity and pharmacologic prevention in cell model of tauopathy (Pickhardt et al., 2017). It binds to amyloid fibrils but not monomers and gives a distinct increase in fluorescence emission. Inhibition of Tau aggregation may improve DsRed misfolding, leading to increased fluorescence in ΔK280 TauRD‐DsRed‐expressing cells. Utilizing the established Tet‐on ΔK280 TauRD‐DsRed 293 cells (Chang et al., 2016), licochalcone A and LM compounds were tested for effects of reducing Tau misfolding and anti‐oxidation (Figure S2a). Congo red was included for comparison. […] In the following experiments, DsRed fluorescence was measured in wells containing at least 80% viable cells. […] Due to the features of their effectiveness and less cytotoxicity, licochalcone A (1 μM) and LM‐031 (1 μM) were chosen as the candidate compounds for the following experiments. […] Representative DsRed and thioflavin S fluorescent images of ∆K280 TauRD‐DsRed‐expressing cells untreated or treated with congo red (10 µM), licochalcone A (1 µM), or LM‐031 (1 µM) are shown in Figure S2d.
DsRed fluorescence of proaggregant ∆K280 TauRD-DsRed 293 cells was evaluated to reflect Tau aggregation. On day 1, cells were seeded on a 96-well plate in a density of 0.8 × 10^4 cells/well. […] On the fifth day, the cells were stained with Hoechst 33342 (0.1 µg/ml; Sigma-Aldrich) for 30 min to identify total cell number; DsRed fluorescence images (543 nm excitation and 593 nm emission) were automatically captured by using the ImageXpressMICRO high-content imaging system (Molecular Devices, Sunnyvale, CA, USA) and analyzed using MetaXpress image acquisition and analysis software (Molecular Devices). In addition, the cells were fixed with paraformaldehyde (4% in PBS) for 15 minutes, permeabilized with methanol (80%) for 6 minutes at -20°C, incubated with thioflavin S (0.02%; Sigma-Aldrich) and 4’,6-diamidino-2-phenylindole (DAPI) (0.1 μg/ml; Sigma-Aldrich) for 5 minutes, and washed in ethanol (50%). Thioflavin S images ([…]) were captured and analyzed as described. In general, 2 × 10^4 cells in each biological replicate were analyzed.
Figure S2. ΔK280 TauRD-DsRed 293 cells. (a) Experimental flow chart. Cells were plated on day 1. On day 2, the cells were treated with congo red or test compounds for 8 h; addition of doxycycline (Dox; 1 µg/ml) followed. DsRed/thioﬂavin S fluorescence, ROS, and caspase 3 activity were assessed on day 5. (b) Cytotoxicity of the test compounds against 293 cells expressing ∆K280 TauRD-DsRed for 3 days using the survived cell number (n = 3). IC50 values are listed. (c) Dose response curves of LM-031 based on DsRed fluorescence measurement. (d) Fluorescent images of ΔK280 TauRD-DsRed 293 cells untreated or treated with congo red (10 µM), licochalcone A (1 µM), or LM-031 (1 µM). Nuclei were counterstained with Hoechst 33342 (blue), and merged DsRed and Hoechst 33342 signals were shown. In addition, tau aggregation was monitored by staining with thioﬂavin S (green).

ΔK280 TauRD‐DsRed = target: T1, ΔK280 TauRD‐DsRed (Homo sapiens, UniProt P10636, DEL597-597); experiment: ∆K280 TauRD‐DsRed fluorescence assay (Tau misfolding) in 293 cells; assay type: cell-based; conditions: 3 days
T1 construct: containing residues 244–372 of the full‐length 4R2N Tau441; expressed in transfected cells; host or cells: Tet-On 293 cells, doxycycline-induced (pcDNA5/FRT/TO/TauRD-DsRed)
Excerpt: In ∆K280 TauRD‐DsRed 293 cells, a proaggregant (ΔK280) Tau repeat domain (TauRD) containing residues 244–372 of the full‐length 4R2N Tau441 was fused in‐frame with DsRed fluorophore. Compared to the wild‐type TauRD, the poorly folded ΔK280 TauRD formed aggregates, which adversely affected the folding of fused DsRed and thus decreased DsRed fluorescence, as also evidenced by increase in thioflavin S fluorescence emission (Chang et al., 2017). Thioflavin S is a reporter dye for studies of Tau toxicity and pharmacologic prevention in cell model of tauopathy (Pickhardt et al., 2017). It binds to amyloid fibrils but not monomers and gives a distinct increase in fluorescence emission. Inhibition of Tau aggregation may improve DsRed misfolding, leading to increased fluorescence in ΔK280 TauRD‐DsRed‐expressing cells. […] In the following experiments, DsRed fluorescence was measured in wells containing at least 80% viable cells. […]
DsRed fluorescence of proaggregant ∆K280 TauRD-DsRed 293 cells was evaluated to reflect Tau aggregation. […] Thioflavin S images (FITC 543 nm excitation and 593 nm emission) were captured and analyzed as described. In general, 2 × 10^4 cells in each biological replicate were analyzed.
Figure S2. ΔK280 TauRD-DsRed 293 cells. […] DsRed/thioﬂavin S fluorescence, ROS, and caspase 3 activity were assessed on day 5. […] (c) Dose response curves of LM-031 based on DsRed fluorescence measurement. […]

[2] = Tet-on ∆K280 TauRD-DsRed 293 cells (expression induced), ∆K280 TauRD‐DsRed‐expressing 293 cells

T1 sequence (P10636 with tags, fused parts or gaps isoform P10636-8 DEL280-280): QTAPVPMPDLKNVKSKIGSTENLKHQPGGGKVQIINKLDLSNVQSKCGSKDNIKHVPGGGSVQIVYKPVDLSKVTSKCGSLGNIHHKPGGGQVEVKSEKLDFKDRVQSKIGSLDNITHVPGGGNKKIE

| ∆K280 TauRD‐DsRed fluorescence (ΔK280 TauRD‐DsRed; 10 µM, no treatment = 100%) | ∆K280 TauRD‐DsRed fluorescence (ΔK280 TauRD‐DsRed; 1 µM, untreated cells = 100%) | SMILES | IC50 at 3 days [1] | viability at 3 days, 1 µM [1, 2] | viability at 3 days, 10 µM ([1]; Tet-on ∆K280 TauRD-DsRed 293 cells (expression induced), 10 μM, ∆K280 TauRD‐DsRed‐expressing 293 cells) |
| --- | --- | --- | --- | --- | --- |
|  |  | COc1ccc(C(=O)/C=C/c2cc(Br)ccc2O)cc1 [LM‐004] | 5 µM |  |  |
|  |  | O=C(c1ccccc1)c1cc2c(O)cccc2oc1=O [LM‐031, 3‐benzoyl‐5‐hydroxychromen‐2‐one] | 56.6 µM | 94 to 97% | 91% |
| 108% |  | Nc1c(/N=N/c2ccc(-c3ccc(/N=N/c4cc(S(=O)(=O)O)c5ccccc5c4N)cc3)cc2)cc(S(=O)(=O)O)c2ccccc12 [congo red, reference compound] | 36.9 µM |  |  |
|  | 105% | C=CC(C)(C)c1cc(/C=C/C(=O)c2ccc(O)cc2)c(OC)cc1O [licochalcone A, reference compound] | 5.9 µM | 94 to 97% |  |
